Consider 27 compounds from patent publication US10464907B2, “Compound having HSP90 inhibitory activity or pharmaceutically acceptable salt thereof, and medical use thereof” (priority 2016, dated 2019).

Like-named read-outs stand apart in the source and are kept apart here.

One may read the logP as a log measure of how a compound divides between an organic and an aqueous phase. A lower logP goes with lower lipophilicity. By inhibition is commonly meant the change of the read-out against control, counted positive when it falls. By EC50 is commonly meant the concentration giving half of the maximal effect. One may read the IC50 as the point on the concentration scale where inhibition reaches its midpoint.

A short description of data set [1]: LogP. In kind it is physicochemical. Particulars: called measured values of LogP. The protocol:
All experimental data were analyzed using Prism software (version 5.0, Graphpad Software, San Diego, Calif.). In addition, tPSA (Topological Polar Surface Area) calculated using Chemdraw software and the measured values of LogP are shown in Tables 1 and 2 below.

Data set [2] relates to H1975. Nature of the data set: MTS cell proliferation / survival assay. In kind it is cell-based. Particulars: Homo sapiens; for inhibition at 10 µM: NCI-H1975, read-out: Inhibition rate at 10 μM (%); for inhibition at 30 µM: NCI-H1975, read-out: Inhibition rate at 30 μM (%). The procedure:
Sk-Br3 (Korean cell line bank), a breast cancer cell, and H1975 cell (ATCC), a nonsmall cell lung cancer, were cultured in RPMI 1640 containing 25 mM HEPES (4-(2-hydroxyethyl)-1-piperazineethanesulfonic acid) and RPMI 1640 containing L-glutamine (containing streptomycin ([…]), penicillin (100 units/mL) and 10% fetal bovine serum (FBS)).
The cells were cultured under a humidified atmosphere of 37° C. and 5% CO2.
Next, non-metastatic lung cancer cells were treated with Compound 17 and the cell proliferation rate or cell survival rate was measured by MTS [3-(4,5-dimethylthiazol-2-yl)-5-(3-carboxymethoxyphenyl)-2-2H-tetrazolium, inner salt] analysis.
Cells were dispensed in 96-well plates at 3000 cell/well (Sk-Br3) and 2000 cell/well (H1975), and 100 μL of the medium was added per well and then was incubated overnight.
Cell proliferation was evaluated using the Promega Cell Titer 96 Aqueous One Solution cell proliferation assay.
After compound and cell culture, 20 μL of assay substrate solution was added to each well and incubated at 37° C. for an additional 1 hour.
Cell proliferation was confirmed by measuring the absorbance at 490 nm using a microplate reader (Tecan Infinite F200 Proplate reader).

Data set [3] deals with H1975 cells. Nature of the data set: MTS cell viability in H1975 cells resistant to Gefitinib. In kind it is cell-based. Particulars: read-out: H1975 (EC50; μM). The protocol:
To confirm the cell viability according to the concentration of the compound synthesized in H1975 cells (ATCC) resistant to Gefitinib, MTS [3-(4,5-dimethylthiazol-2-yl)-5-[…]carboxymethoxyphenyl)-2-(4-sulfophenyl)-2H-tetrazolium, inner salt] analysis was performed. When the cells were cultured so as to occupy 80% of the bottom of the culture dish, the cells were detached and diluted with RPMI 1640 medium to a concentration of 1.5×10^3 cells/well. Each 100 μL of the suspension was added to each well of a 96-well plate and cultured for 14 hours. Then, the medium was changed to the culture solution treated with compound of each concentration each concentration (1a-g: 0, 1, 5, 10, 30, 50 or 100 μM, 14a-I, 16a, b, 21a-f: 0, 0.01, 0.1, 1, 5, 10, 30, 50, 70 or 100 μM), and cultured for 3 days. Each 20 μL of the MTS solution was dispensed into each well and reacted for 1 hour at 37° C. in an incubator supplied with 5% CO2.

Data set [4] addresses HSP90α (Homo sapiens (Human), UniProt P07900). Nature of the data set: Fluorescence polarization assay, binding ability to HSP90, benzamide compounds. The following applies: GA-FITC 100 nM; read-out: HSP90 FP) (IC50; nM). The protocol:
1 M dithiothreitol (DTT), 10 mg/m: BGG (bovine gamma globulin) were added to hexafluorobenzene (HFB) buffer (20 mM HEPES pH 7.3, 50 mM KCl, 5 mM MgCl2, 20 mM Na2MoO4, 0.01% NP4O, 3rd distilled water) and mixed. Then, 100 nM […] (GA)-FITC (Fluorescein isothiocyanate) was added and reacted at room temperature for 10 minutes. Each 100 μL of the mixture was dispensed into the control wells of a 96-well plate, 2 μL of HSP90α was added to the remaining mixture, and each 100 μL of the other wells was dispensed. […] The binding ability of the compound to HSP90 was expressed as mP (millipolarization unit=1000 mP unit).
In general terms: Polarisation of emitted light reports the rotation of a fluorescent probe.

In turn, `O=C(c1cc(Cl)c(O)cc1O)N1CCCC1` [Compound 11a, (5-chloro-2,4-dihydroxyphenyl) (pyrrolidin-1-yl)methanone] returned a log partition coefficient (logP) in data set [1] of 1.13. In data set [2], the inhibition at 10 µM turned out to be 8.1% and the inhibition at 30 µM stood at 22.1%.

Compound `O=C(c1cc(Cl)c(O)cc1O)N1CCCCC1` [Compound 11b, (5-chloro-2,4-dihydroxyphenyl) (piperidin-1-yl)methanone] displayed a logP in data set [1] of 1.69. In data set [2], the inhibition at 10 µM worked out at 7.6% and the inhibition at 30 µM was 26.3%.

`O=C(c1cc(Cl)c(O)cc1O)N1CCOCC1` [Compound 11c, (5-chloro-2,4-dihydroxyphenyl) (morpholino)methanone]: the log partition coefficient (logP) in data set [1] was 0.66. In data set [2], the inhibition at 10 µM came out at 24.3% and the inhibition at 30 µM was determined as 44%.

`O=C(c1cc(Cl)c(O)cc1O)N1CCNCC1` [Compound 11d, (5-chloro-2,4-dihydroxyphenyl) (piperazin-1-yl)methanone] returned a logP in data set [1] of 0.65. Besides, in data set [2], the inhibition at 10 µM worked out at 0% and the inhibition at 30 µM came to 0%.

In the case of `CN1CCN(C(=O)c2cc(Cl)c(O)cc2O)CC1` [Compound 11e, (5-chloro-2,4-dihydroxyphenyl)(4-methylpiperazin-1-yl)methanone], in data set [1], the logP turned out to be 1.23. Further, in data set [2], the inhibition at 10 µM is 26.3% and the inhibition at 30 µM came to 48.7%.

In data set [1], `CC(=O)N1CCN(C(=O)c2cc(Cl)c(O)cc2O)CC1` [Compound 11f, 1-(4-(5-chloro-2,4-dihydroxybenzoyl)piperazin-1-yl)ethanone] had a logP of 0.25. Moreover, in data set [2], the inhibition at 10 µM was found to be 0% and the inhibition at 30 µM worked out at 10.5%.

Regarding `O=C1CN(C(=O)c2cc(Cl)c(O)cc2O)CCN1` [Compound 11g, 4-(5-chloro-2,4-dihydroxybenzoyl)piperazin-2-one], the logP in data set [1] is 0.45. Moreover, in data set [2], the inhibition at 10 µM was determined as 0% and the inhibition at 30 µM is 0%.

As for `O=C1CCN(C(=O)c2cc(Cl)c(O)cc2O)C1` [Compound 11h, 1-(5-chloro-2,4-dihydroxybenzoyl) pyrrolidin-3-one], the lipophilicity (logP) in data set [1] was 0.84. In data set [2], the inhibition at 10 µM is 0% and the inhibition at 30 µM came to 0%.

As for `O=C1CCN(C(=O)c2cc(Cl)c(O)cc2O)CC1` [Compound 11i, 1-(5-chloro-2,4-dihydroxybenzoyl)piperidin-4-one], the logP in data set [1] was determined as 0.6.

Regarding `CN1CCN(C(=O)c2cc(Cl)c(O)cc2O)C(c2ccccc2)C1` (centres unmarked) [Compound 11j, (5-chloro-2,4-dihydroxyphenyl)(4-methyl-2-phenylpiperazin-1-yl)methanone], the logP in data set [1] came to 3.22.

With `O=C(NCc1ccccc1)c1cc(Cl)c(O)cc1O` [Compound 14a, N-Benzyl-5-chloro-2,4-dihydroxybenzamide], the EC50 in data set [3] (Homo sapiens, NCI-H1975, 72 h) turned out to be 86.2 µM.

Turning to `CN(Cc1ccccc1)C(=O)c1cc(Cl)c(O)cc1O` [Compound 14b, N-Benzyl-5-chloro-2,4-dihydroxy-N-methylbenzamide], the IC50 in data set [4] was 413 nM. Further, the EC50 in data set [3] (Homo sapiens, NCI-H1975, 72 h) stood at 35.5 µM.

Take `COc1ccc(CN(C)C(=O)c2cc(Cl)c(O)cc2O)cc1` [Compound 14c, 5-chloro-2,4-dihydroxy-N-(4-methoxybenzyl)-N-methylbenzamide]: in data set [4], the IC50 stood at 135 nM. Further, the EC50 in data set [3] (Homo sapiens, NCI-H1975, 72 h) amounted to 16.7 µM.

As for `COc1ccc(CN(C)C(=O)c2cc(Cl)c(O)cc2O)cc1OC` [Compound 14d, 5-chloro-N-(3,4-dimethoxybenzyl)-2,4-dihydroxy-N-methylbenzamide], the IC50 in data set [4] stood at 362 nM. In addition, in data set [3] (Homo sapiens, NCI-H1975, 72 h), the concentration giving a half-maximal response (EC50) was 33.4 µM.

Consider `CN(Cc1ccc2c(c1)OCO2)C(=O)c1cc(Cl)c(O)cc1O` [Compound 14e, N-(benzo[d][1,3]dioxol-5-ylmethyl)-5-chloro-2,4-dihydroxy-N-methylbenzamide], for which the IC50 in data set [4] was found to be 585 nM. Further, the EC50 in data set [3] (Homo sapiens, NCI-H1975, 72 h) is 103 µM.

For `COc1cc(CN(C)C(=O)c2cc(Cl)c(O)cc2O)cc(OC)c1OC` [Compound 14f, 5-chloro-2,4-dihydroxy-N-methyl-N-(3,4,5-trimethoxybenzyl) benzamide], the IC50 in data set [4] was 1460 nM. Besides, the concentration for a half-maximal effect (EC50) in data set [3] (H1975, 3 days) was 73.1 µM.

Take `COc1cc(CN(C)C(=O)c2cc(Cl)c(O)cc2O)c(Cl)c(OC)c1OC` [Compound 14g, 5-chloro-N-(2-chloro-3,4,5-trimethoxybenzyl)-2,4-dihydroxy-N-methylbenzamide]: in data set [4], the IC50 is 429 nM. In addition, the EC50 in data set [3] (Homo sapiens, NCI-H1975, 72 h) amounted to 33.8 µM.

For `COc1cc(CN(C)C(=O)c2cc(Cl)c(O)cc2O)c(Br)c(OC)c1OC` [Compound 14h, N-(2-bromo-3,4,5-trimethoxybenzyl)-5-chloro-2,4-dihydroxy-N-methylbenzamide], in data set [4], the IC50 stood at 528 nM. Also, the EC50 in data set [3] (Homo sapiens, NCI-H1975, 72 h) amounted to 34.3 µM.

For `Cc1cccc(CN(C)C(=O)c2cc(Cl)c(O)cc2O)c1` [Compound 14i, 5-chloro-2,4-dihydroxy-N-methyl-N-(3-methylbenzyl)benzamide], in data set [3] (Homo sapiens, NCI-H1975, 72 h), the EC50 came to 47.5 µM.

Consider `Cc1ccccc1CN(C)C(=O)c1cc(Cl)c(O)cc1O` [Compound 16a, 5-chloro-2,4-dihydroxy-N-methyl-N-(2-methylbenzyl)benzamide], for which, in data set [3] (Homo sapiens, NCI-H1975, 72 h), the EC50 stood at 49.3 µM.

As to `Cc1ccc(CN(C)C(=O)c2cc(Cl)c(O)cc2O)cc1` [Compound 16b, 5-chloro-2,4-dihydroxy-N-methyl-N-(4-methylbenzyl)benzamide], in data set [4], the IC50 was determined as 558 nM. Also, the EC50 in data set [3] (Homo sapiens, NCI-H1975, 72 h) stood at 34.3 µM.

`CNC(=O)c1ccc(CN(C)C(=O)c2cc(Cl)c(O)cc2O)cc1` [Compound 21a, 5-chloro-2,4-dihydroxy-N-methyl-N-(4-(methylcarbamoyl)benzyl) benzamide]: the half-inhibitory concentration (IC50) in data set [4] worked out at 496 nM. Further, in data set [3] (H1975, 3 days), the EC50 turned out to be 34.8 µM.

Take `CCNC(=O)c1ccc(CN(C)C(=O)c2cc(Cl)c(O)cc2O)cc1` [Compound 21b, 5-chloro-N-(4-(ethylcarbamoyl)benzyl)-2,4-dihydroxy-N-methylbenzamide]: the IC50 in data set [4] came out at 612 nM. In addition, the EC50 in data set [3] (Homo sapiens, NCI-H1975, 72 h) amounted to 21.7 µM.

As to `CCCNC(=O)c1ccc(CN(C)C(=O)c2cc(Cl)c(O)cc2O)cc1` [Compound 21c, 5-chloro-2,4-dihydroxy-N-methyl-N-(4-(propylcarbamoyl)benzyl)benzamide], in data set [4], the IC50 is 454 nM. Moreover, in data set [3] (Homo sapiens, NCI-H1975, 72 h), the EC50 was found to be 20.8 µM.

In the case of `CNC(=O)c1ccc(CN(C)C(=O)c2cc(C(C)C)c(O)cc2O)cc1` [Compound 21d, 2,4-dihydroxy-5-isopropyl-N-methyl-N-(4-(methylcarbamoyl)benzyl) benzamide], the IC50 in data set [4] came to 11.4 nM. For the same compound, in data set [3] (H1975, 3 days), the EC50 was 0.83 µM.

For `CCNC(=O)c1ccc(CN(C)C(=O)c2cc(C(C)C)c(O)cc2O)cc1` [Compound 21e, N-(4-(ethylcarbamoyl)benzyl)-2,4-dihydroxy-5-isopropyl-N-methylbenzamide], in data set [4], the IC50 was determined as 6.5 nM. Also, in data set [3] (Homo sapiens, NCI-H1975, 72 h), the EC50 stood at 0.46 µM.

On to `CC(C)c1cc(C(=O)N(C)Cc2ccccc2)c(O)cc1O` [Compound 21g, N-benzyl-2,4-dihydroxy-5-isopropyl-N-methylbenzamide], for which the EC50 in data set [3] (Homo sapiens, NCI-H1975, 72 h) amounted to 4.1 µM.
